Tests used:
[1] = Surface tension / critical micelle concentration on a tensiometer; format: physicochemical; details: 0.001 to 1 wt % in DI water, FIG. 1
Experimental: All samples were run on a tensiometer with the concentration of the amine surfactants ranging from 0.001 to 1 wt % in up to 50 mL DI water.

[2] = system: E. coli; assay: AOAC Official Method 960.09 Germicidal and Detergent Sanitizing Action of Disinfectants; format: cell-based
Excerpt: (§1) As used herein, the term “sanitizer” refers to an agent that reduces the number of bacterial contaminants to safe levels as judged by public health requirements. […] These reductions can be evaluated using a procedure set out in Germicidal and Detergent Sanitizing Action of Disinfectants, Official Methods of Analysis of the Association of Official Analytical Chemists, paragraph 960.09 and applicable sections, 15th Edition, 1990 (EPA Guideline 91-2). According to this reference a sanitizer should provide a 99.999% reduction (5-log order reduction) within 30 seconds at room temperature, 25±2° C., against several test organisms. […] Differentiation of antimicrobial “-cidal” or “-static” activity, the definitions which describe the degree of efficacy, and the official laboratory protocols for measuring this efficacy are considerations for understanding the relevance of antimicrobial agents and compositions. Antimicrobial compositions can affect two kinds of microbial cell damage. The first is a lethal, irreversible action resulting in complete microbial cell destruction or incapacitation. The second type of cell damage is reversible, such that if the organism is rendered free of the agent, it can again multiply. The former is termed microbiocidal and the later, microbiostatic. A sanitizer and a disinfectant are, by definition, agents which provide antimicrobial or microbiocidal activity.
(§2) In order to determine the efficacy of the amine-based surfactants in various environments as determined by different pH values, the surfactants were tested for antimicrobial efficacy on E. coli and Staphylococcus aureus.

[3] = system: Staphylococcus aureus; assay: as above; format: cell-based; details: pH 5, about 12.5 to about 400 ppm tested, 5-log reached only at the highest concentration tested
Excerpt: as §1, §2

[4] = Glewwe foam test; format: physicochemical; details: foam height; 120 F; pH 8.5
Experimental: The ability of a defoaming agent to control the foaming profile of the surfactant was also tested.
The foam height never surpassed the maximum height of 3 inches allowed by the Glewwe test for a passing test and generally had no foam or a low froth present. Even at a 3:1 ratio of surfactant to defoamer, the fatty alcohol alkoxylate was sufficient to keep the foam low for machine ware washing. At lower ratios, such as 2:1 or 1:1 surfactant to defoamer, the level of foam was even better maintained at a low to nonexistent amount.

CCCCCCCCCCCCN(CCCN)CCCN [bis(3-aminopropyl)dodecylamine]
surface tension ([1]; pH 5): about 35 mN/m
surface tension ([1]; pH 7): about 35 mN/m
surface tension ([1]; pH 9): about 32 mN/m
log reduction ([2]; pH 5, about 12.5 to about 400 ppm tested, 5-log reached only at the highest concentration tested): < 5 log
concentration to achieve a 5-log reduction ([2]; pH 7): 50 ppm
log reduction [3]: < 5 log
Surfactant Foam Profile 0 min [4]: 9
Surfactant Foam Profile 15 sec [4]: 9
Surfactant Foam Profile 1 min [4]: 8
